Test results as given in PubChem BioAssay (NCI).
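In this assay, cells in 96-well plates receive the compound at five concentrations for 48 hours. Endpoints are linearly interpolated between the surrounding concentrations. Definition used: TGI = concentration required for complete inhibition of growth.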

test system: HL-60(TB) leukemia; experiment: DTP human tumour cell line panel, 48 h

| Structure (SMILES) | TGI |
| --- | --- |
| Cc1cc(-c2nc3ccc(F)cc3s2)ccc1NC(=O)[C@H](C)N | 7.45 µM |
| Cc1cc(Nc2ccc(S(=O)(=O)O)c3cc(S(=O)(=O)O)cc(S(=O)(=O)O)c23)c2ccccc2n1 | > 100 µM |
| Cc1cc(C)nc(NS(=O)(=O)c2ccc(NC(=O)c3ccc4nc5ccccc5c(Nc5ccc(S(N)(=O)=O)cc5)c4c3)cc2)n1 | > 100 µM |
| CC1(C(=O)O)CCC2(C)CCC3(C)C(=CC(=O)C4C5(C)CCC(O)C(C)(C)C5CCC43C)C2C1 (configuration not stated) | 51.3 µM |
| COC(=O)c1c(C)nc2c1cc(O)c1[nH]c(C)c(C)nc12 | > 100 µM |
| Cn1c2ccc3cc2c(=S)c2cc(ccc21)OCCOCCOCCOCCOCCOCCO3 | > 10 µM |
| O=[N+]([O-])c1cc(C=NC23CC4CC(CC(C4)C2)C3)ccc1Cl | 8.28 µM |
| COc1cc(S(=O)(=O)Nc2nc(-c3ccc(N4C(=O)C(CC(=O)O)SC4c4cccs4)cc3)cs2)ccc1Cl (configuration not stated) | 74 µM |
| CCCCCC1=CC(=O)C1(Cl)Cl | 4.06 µM |
| CC(=O)N(C(=O)CC(=O)N1N=C(c2ccccc2)C(N=Nc2ccccc2[N+](=O)[O-])C1=O)c1ccc(Cl)cc1 (configuration not stated) | > 10 µM |
| CC(=O)N1C(C(=O)NC2CCCCC2)CSC1c1ccccc1 (configuration not stated) | > 100 µM |
| Oc1ccccc1CNCc1nc2ccccc2[nH]1 | > 100 µM |
| COc1ncc(/C=C2\OC(=O)c3ccccc32)c(OC)n1 | > 100 µM |
| CC1(C)O[C@H]2OC(CO[Si](C)(C)C(C)(C)C)C(N=[N+]=[N-])[C@H]2O1 (some centres not stated) | 23.1 µM |
| C[C@]12CCC3C4=C(CCC3C1CCC2=O)C(=O)[C@H]1O[C@H]1C4=O (some centres not stated) | 7.93 µM |
| O=[N+]([O-])c1ccc(Cl)cc1N/N=C/c1ccnc2ccccc12 | > 100 µM |
| CC(C)c1cc2c(cc1S(=O)(=O)O)[C@@]1(C)CCC[C@@](C)(C(=O)O)C1CC2 (some centres not stated) | > 100 µM |
| C/C(=C\CBr)CCC(Br)C(C)(C)Br (configuration not stated) | > 100 µM |
| O=C1CCC2(c3ccc(Cl)cc3)Nc3ccncc3N12 (configuration not stated) | > 10 µM |
| Oc1ccc(Cc2cc(Cc3ccc(O)cc3)cc(Cc3ccc(O)cc3)c2)cc1 | > 50 µM |
| [N-]=[N+]=NC(c1ccccc1)(c1ccccc1)c1ccccc1 | 39.4 µM |
| C[C@]12CC[C@H](O)CC1=CC[C@@H]1[C@@H]2CC[C@]2(C)C(=N/N)/C(=N\O)C[C@@H]12 | 67.7 µM |
| O=C(C1OC1c1ccc(Br)cc1O)C12CC3CC(CC(C3)C1)C2 (configuration not stated) | 40.9 µM |
| c1ccc2c3[nH]c(c2c1)=Nc1ccc(cc1)-c1nc2cc(ccc2o1)N=c1[nH]c(c2ccccc12)=Nc1ccc2nc(oc2c1)-c1ccc(cc1)N=3 | > 100 µM |
| O=C(OCc1ccccc1)N1CCNCCN(C(=O)OCc2ccccc2)CCNCC1 | 93.4 µM |
| O=C(Cc1ccc(O)c(O)c1)NCc1c[nH]c2ccccc12 | 85.7 µM |
| COc1nncc2[nH]c(-c3ccccc3)cc12 | > 100 µM |
| O=S(=O)(c1ccccc1)c1cccc2c1NCCC2 | 67.4 µM |
| COP(=O)(OC)C1=c2c(C)noc2=C2C=COC2C1=O (configuration not stated) | > 100 µM |

test system: SNB-75 CNS; experiment: DTP human tumour cell line panel, 48 h

| Structure (SMILES) | TGI |
| --- | --- |
| CCOC(=O)c1c(CN2CCCC2)n(-c2ccccc2)c2cc(Br)c(O)cc12 | 36.7 µM |
| COc1cccc(Nc2nc(-c3cccs3)nc3cc(OC)c(OC)cc23)c1 | 73.5 µM |
| Nn1c(-c2ccccc2)n[nH]c1=O | > 100 µM |
| Nn1c(Nc2ccc(S(=O)(=O)Nc3ncccn3)cc2)nnc(/C=C/c2c(O)ccc3ccccc23)c1=O | 66.5 µM |
| Cc1cc(-c2nc3ccc(F)cc3s2)ccc1NC(=O)[C@H](C)N | 25.4 µM |
| Cc1cc(Nc2ccc(S(=O)(=O)O)c3cc(S(=O)(=O)O)cc(S(=O)(=O)O)c23)c2ccccc2n1 | > 100 µM |
| Cc1cc(C)nc(NS(=O)(=O)c2ccc(NC(=O)c3ccc4nc5ccccc5c(Nc5ccc(S(N)(=O)=O)cc5)c4c3)cc2)n1 | > 100 µM |
| Nc1c(-c2ccc(Cl)c(Cl)c2)c2ccc([N+](=O)[O-])cc2c(=O)n1-c1nc2ccccc2s1 | 8.23 µM |
| CC1(C(=O)O)CCC2(C)CCC3(C)C(=CC(=O)C4C5(C)CCC(O)C(C)(C)C5CCC43C)C2C1 (configuration not stated) | > 100 µM |
| COC(=O)c1c(C)nc2c1cc(O)c1[nH]c(C)c(C)nc12 | 71.8 µM |
| Cn1c2ccc3cc2c(=S)c2cc(ccc21)OCCOCCOCCOCCOCCOCCO3 | > 10 µM |
| O=[N+]([O-])c1cc(C=NC23CC4CC(CC(C4)C2)C3)ccc1Cl | > 100 µM |
| COc1cc(S(=O)(=O)Nc2nc(-c3ccc(N4C(=O)C(CC(=O)O)SC4c4cccs4)cc3)cs2)ccc1Cl (configuration not stated) | 40.4 µM |
| CCCCCC1=CC(=O)C1(Cl)Cl | 30.4 µM |
| CC(=O)N(C(=O)CC(=O)N1N=C(c2ccccc2)C(N=Nc2ccccc2[N+](=O)[O-])C1=O)c1ccc(Cl)cc1 (configuration not stated) | > 10 µM |
| CC(=O)N1C(C(=O)NC2CCCCC2)CSC1c1ccccc1 (configuration not stated) | > 100 µM |
| Oc1ccccc1CNCc1nc2ccccc2[nH]1 | > 100 µM |
| COc1ncc(/C=C2\OC(=O)c3ccccc32)c(OC)n1 | 47.3 µM |
| CC1(C)O[C@H]2OC(CO[Si](C)(C)C(C)(C)C)C(N=[N+]=[N-])[C@H]2O1 (some centres not stated) | 59.3 µM |
| C[C@]12CCC3C4=C(CCC3C1CCC2=O)C(=O)[C@H]1O[C@H]1C4=O (some centres not stated) | 8.14 µM |
| O=[N+]([O-])c1ccc(Cl)cc1N/N=C/c1ccnc2ccccc12 | > 100 µM |
| Oc1[nH]c2ccccc2c1N=Nc1nc(-c2ccc(Br)cc2)cs1 | 46.6 µM |
| CC(C)c1cc2c(cc1S(=O)(=O)O)[C@@]1(C)CCC[C@@](C)(C(=O)O)C1CC2 (some centres not stated) | > 100 µM |
